# Source: patent US20090162855A1, “Identification of Genetic Variants Associated with Increased Severity of Pulmonary Disease” (CASE WESTERN RESERVE UNIVERSITY, priority 2007, published 2009)
# Square brackets hold non-standard residues; d marks the D form. Peptide text beside a SMILES is read from it.
# Assays:
# [1] = system: tracheal smooth muscle cells; test: Mitogenic index by BrdU incorporation in primary cultures of tracheal smooth muscle cells; format: cell-based, human; settings: for proliferation (BrdU incorporation), treated vs untreated: cultures from 9 individuals, estrogen 72 hrs
# From the text: (§1) A cellular phenotype that could potentially explain the genotype-phenotype association is a difference in smooth muscle proliferation. To be able to assess this in vitro, we have carried out studies examining the mitogenic effects of the receptor agonist, endothelin, on cultured smooth muscle cells, as well as those of estrogen and Transforming Growth Factor Beta 1 (TGFβ1). In these studies, TGFβ1 is used as a control mitogen in that it exerts its effect on proliferation independent of the endothelin receptor. […] Primary cultures of tracheal smooth muscle cells from 4 individuals were treated with TGFβ1, estrogen, endothelin, or estrogen and endothelin (Estr/Endo) for 72 hrs, and assayed for mitogenic index by BrdU incorporation (FIG. 8A) or for cell number (FIG. 8B). Values shown are ratios of treated to untreated (control) cells grown simultaneously. Each cell line and condition was carried out in triplicate. […] An EDNRA antagonist, BQ123 (Sigma), was included at 1 μM to determine if EDNRA-mediated effects could be blocked.
# A larger group of cell lines stratified by genotype was examined. Primary cultures of tracheal smooth muscle cells from 9 individuals were treated with estrogen for 72 hrs, assayed for BrdU incorporation and compared to control cultures (no estrogen). FIG. 9 provides the ratio of treated to untreated cells. […] Treatment with estrogen appears to result in increased proliferation, but the effect is genotype dependent. This is in contrast to other reports of vascular smooth muscle in which estrogen inhibits proliferation.
# [2] = system: tracheal smooth muscle cells; format: cell-based, human; settings: cultures from 4 individuals, 72 hrs
# From the text: as §1
# EDNRA mRNA = test: Quantitative RT-PCR of EDNRA mRNA in smooth muscle cell lines treated with estrogen; format: cell-based, human; settings: 9 smooth muscle cell lines (5 female, 4 male), estrogen 24 hours, vs unstimulated cells, 18S rRNA internal control
# Protocol: Effects of these variants on EDNRA mRNA levels were examined. Primary airway smooth muscle cells from 10 non-CF individuals were harvested for DNA and RNA. Airway smooth muscle cells were cultured from tracheas obtained from autopsy. Cells were isolated from human trachealis muscle by digesting with collagenase and elastase in the presence of soybean trypsin inhibitor at 37° C. as previously described. The cells were harvested by centrifugation after filtering through Nytex and grown in Dulbecco's modified eagle's medium (DMEM/F12 1:1) containing 10% fetal bovine serum, 100 U/ml penicillin and 100 μg/ml streptomycin at 37° C. in a humidified atmosphere with 5% CO2 and 95% air. DNA samples were genotyped for rs1801708 and rs5335 and EDNRA mRNA quantified from total RNA by real time RT-PCR. EDNRA mRNA was quantified relative to 18s rRNA in 10 airway smooth muscle cell lines and compared by genotype. RNA was isolated from airway smooth muscle cells using the Qiagen RNeasy kit. […] A Ct was established for each sample and compared to standard curves to determine mRNA quantity. […] Values are expressed as a ratio of EDNRA: 18s copies. […]
# Nine smooth muscle cell lines were exposed to estrogen and mRNA levels compared to unstimulated cells. […] Quantitative RT-PCR was carried out to determine copy number using 18S rRNA as an internal control. […]
# smooth muscle cells = test: Intracellular calcium mobilization from sarcoplasmic reticulum measured using Fura-2; format: cell-based; settings: 24 hrs in endothelin, washout
# Protocol: FIG. 12 is a graph showing the response of cultures of smooth muscle cells to endothelin-1 (ET-1) acutely (control) and sarcoplasmic reticulum release of calcium measured by Fura-2 fluorescence ratios.
# Smooth muscle cells of various EDNRA genotype combinations were examined for changes in intracellular calcium in response to endothelin. The effects of chronic exposure were assessed by incubating the cells for 24 hrs in endothelin, followed by a brief washout (30 minutes) and then re-exposure to endothelin and measurement of calcium release. […] For these assays, intracellular calcium mobilization from sarcoplasmic reticulum was measured using Fura-2. No significant differences were observed between subjects with regards to magnitude or duration of response from acute stimulation (FIG. 12, control). However, if cultured for 24 hrs in the presence of endothelin, washed out just before reexposure, there is a significant difference between subjects in the magnitude of response (FIG. 12, ET-1 conditioned).
# human ASM cells = test: Actin stress fiber formation (TRITC-phalloidin) in cultured ASM cells; format: cell-based; settings: cultured in presence of ET-1 for 24 hours; preliminary data
# From the text: FIG. 11 is a pair of micrographs of cultured ASM cells placed in either serum free media (A) or media containing ET-1 (B) for 24 hr; and
# EDNRA is expressed on airway and vascular smooth muscle. Using indirect immunocytochemical staining of human ASM cells from the trachealis muscle retrieved from necroscopy tissue of 53 individuals, we have determined these cells consistently display EDNRA on the cell membrane (FIG. 10—staining is predominantly along cell membranes). […] This implies a functional receptor with ligand binding and intact intracellular signaling pathways.
compound,measurement,setting,value
CC(C)C[C@@H]1NC(=O)[C@@H](C(C)C)NC(=O)[C@@H]2CCCN2C(=O)[C@@H](CC(=O)O)NC(=O)[C@@H](Cc2c[nH]c3ccccc23)NC1=O [BQ123] (cyclo(L[dW][dD]P[dV])),mitogenic index of cells with EDNRA antagonist included,[1]; BQ123 at 1 μM,reduced the mitogenic index
Transforming Growth Factor Beta 1 [TGFβ1],"mitogenic index (BrdU incorporation), ratio of treated to untreated cells","[1]; cultures from 4 individuals, 72 hrs",tripled
same,"cell number, ratio of treated to untreated cells",[2],did not significantly alter cell number
estrogen,"proliferation (BrdU incorporation), treated vs untreated","[1]; cells with ""protective"" GG genotype",no effect
same,"proliferation (BrdU incorporation), treated vs untreated","[1]; cells with ""severe"" AA genotype",increase proliferation
same,increase of EDNRA mRNA levels in response to hormone treatment,EDNRA mRNA,approximately 5 fold
CC[C@H](C)[C@H](NC(=O)[C@H](CC(=O)O)NC(=O)[C@H](CC(C)C)NC(=O)[C@H](Cc1c[nH]cn1)NC(=O)[C@@H]1CSSC[C@H](N)C(=O)N[C@@H](CO)C(=O)N[C@H]2CSSC[C@H](NC(=O)[C@H](CCC(=O)O)NC(=O)[C@H](CCCCN)NC(=O)[C@H](CC(=O)O)NC(=O)[C@H](CCSC)NC(=O)[C@H](CC(C)C)NC(=O)[C@H](CO)NC(=O)[C@H](CO)NC2=O)C(=O)N[C@@H](C(C)C)C(=O)N[C@@H](Cc2ccc(O)cc2)C(=O)N[C@@H](Cc2ccccc2)C(=O)N1)C(=O)N[C@H](C(=O)N[C@@H](Cc1c[nH]c2ccccc12)C(=O)O)[C@@H](C)CC [endothelin-1],calcium release activity lost on re-exposure,"smooth muscle cells; cells with ""adverse"" genotypes",10-15%
same,"calcium release activity on re-exposure, of pre-exposure activity","smooth muscle cells; cells with ""protective"" genotype of 3′ markers",15%
same,formation of actin stress fibers,human ASM cells,increases the formation of actin stress fibers
